The record followed here is US20040147562A1, “Methods of treating conditions associated with an EDG-1 receptor” (priority 2002, published 2004).

Data set [1] deals with human umbilical vein endothelial cells. Nature of the data set: Trans-matrigel chemotaxis / invasion assay with HUVECs (modified Boyden chamber). The format is cell-based. As to the method:
In addition to Edg-1, other Edg receptors are also implicated in S1P stimulated chemotaxis, including Edg-3 and Edg-6. To assess the relative roles of the Edg-1 receptors and Edg-3 receptors in S1P stimulated chemotaxis, the ability of S1P to evoke trans-matrigel chemotaxis was tested in the presence of the Edg-1 antagonist 101, the Edg-3 antagonist 301, and the combination of 101 and 301. These experiments were performed according to the migration and invasion assay protocols described in Section 7.12, below. The Edg-3 antagonist 301, 3-Methyl-2-phenyl-quinoline-4-carboxylic acid 4-fluoro-benzylamide, is extensively described in co-pending U.S. application Ser. No. 10/390,426, which is incorporated by reference in its entirety. 301 is identified as compound 101 in U.S. application Ser. No. 10/390,426. Further, 301 is commercially available from Specs (The Netherlands) as compound number AK-968/12971392.
(§1) S1P is a strong chemoattractant to human PBMCs. […] Several migration assays were performed to test this hypothesis and to determine the effect of Edg-1 agonists and antagonists on S1P mediated chemotaxis. The migration assays were performed according to the protocol described in Section 7.12, below. The results of theses assays are presented in FIG. 6, FIG. 7, FIG. 8, FIG. 9 and FIG. 13.
(§2) Cells were plated in a 24 well format using Fluoroblok filter insert plates ([…] pore size) or Fluoroblok matrigel coated filter insert plates (Becton Dickinson, San Diego, Calif.). The assay was a modified Boyden Chamber assay in which a cell suspension (1×10^5 cells/ml) was prepared in serum free medium and added to the top chamber. LPA or S1P (doses ranged from 0.1-10 μM in serum free medium) was added to the bottom chamber. Following a 20-24 hour incubation period, the number of cells migrating or invading into the lower chamber was quantitated by transferring the filter insert into a fresh 24-well plate containing 4 μg/ml calcein AM (Molecular Probes, Sunnyvale, Calif.) in Hank's Balanced Salt Solution and staining for one hour.
(§3) Detection was via fluorescent readout at 450 nm excitation/530 nm emission using a fluorimeter. The level of fluorescence correlated with cell number.

For data set [2] the test system is unchanged. Put plainly: S1P induced calcium response in human umbilical vein endothelial cells. The format is cell-based. To be noted: HUVEC; FIG. 4, 5.
The target of data set [3] is T1, human Edg-1 receptors (Homo sapiens, UniProt P21453). Put plainly: Intracellular calcium (FLIPR) assay, HTC cells expressing Edg-1. The format is cell-based. The arrangement: Edg 1 IC50 μM; fused on or other part: in the chimera reading: the third intracellular loop (i3) of Edg-3 (S1PR3) in place of Edg-1's own. As to the method: (§4) The compounds were tested in HTC cells expressing human Edg-1 receptors. […] The compounds were tested in this recombinant system first, and subsequently tested in cell lines expressing Edg-1 (in addition to other Edg receptors).
(§5) […] receptors such as Edg-1, couple to calcium effector pathways, and result in increases in intracellular calcium following receptor activation (An, 1998, J. Cell Biochem. Supp 30-31:147-157). This biological response lends itself to a very efficient, high-throughput screen using a Fluorescence Imaging Plate Reader (FLIPR; Molecular Devices, Sunnyvale, Calif.). The FLIPR system is a real-time, cell-based assay system with continuous fluorescence detection using a cooled CCD camera. The FLIPR system was used to develop an Edg-1 receptor screen. Rat hepatoma cells stably expressing Edg-1/3i3 chimera or Edg-1 and Gqi were plated on 384-well plates and loaded with a calcium dye loading kit (Molecular Devices, Sunnyvale, Calif.) for 1 hour at room temperature. Cells were then placed on the FLIPR^384 (Molecular Devices, Sunnyvale, Calif.) and excited by an argon laser at 488 nm. The data for the entire 384-well plate was updated every second. An integrated robotic pipettor allowed for simultaneous compound addition into each individual well in the plate.
For orientation: A change in cytosolic calcium serves as a functional read-out for many receptors and channels.

For the next data set, the system named is mouse T cells. Put plainly: Mouse T cell migration in Transwell chambers with matrigel. The format is cell-based. The settings on record: in the presence of S1P; FIG. 14. As to the method: To further elucidate the role of the Edg-1 receptor in lymphocyte trafficking, migration of mouse T cells was analyzed in both in vitro and in vivo models. Migration of mouse T cells was first tested in Transwell chambers (Costar, Cambridge, Mass.) with polycarbonate fibers having a pore width of 8 μm, separated by a layer of matrigel. Stimulants S1P or exodus-2 were separately added to the bottom chamber. The effects of exodus-2 were tested alone, with S1P, and with S1P and Edg-1 antagonists 101 and 102.

Data set [4] has as its system human peripheral blood mononuclear cells. Put plainly: Migration of human peripheral blood mononuclear cells. The format is cell-based. The settings on record: chemoattractant; FIG. 9, 13. As to the method: as §1, §2, §3
Human PBMCs are isolated from the buffy coats of healthy donors from the Stanford Blood Center. […]

In another data set the test system is Null/Gqi. Nature of the data set: Intracellular calcium (FLIPR) assay, Null/Gqi control cells. To be noted: Rattus norvegicus; agonist. The format is cell-based.
Data set [5] concerns the target T1, human Edg-1 receptors. Put plainly: Intracellular calcium (FLIPR) assay, HTC cells expressing Edg-1. The arrangement: expressed in transfected cells; host or cells: HTC rat hepatoma cells. The format is cell-based. To be noted: agonist; Edg 1/Gqi. As to the method:
as §4, §5

T1 sequence (P21453 whole entry, the tested form may be a part): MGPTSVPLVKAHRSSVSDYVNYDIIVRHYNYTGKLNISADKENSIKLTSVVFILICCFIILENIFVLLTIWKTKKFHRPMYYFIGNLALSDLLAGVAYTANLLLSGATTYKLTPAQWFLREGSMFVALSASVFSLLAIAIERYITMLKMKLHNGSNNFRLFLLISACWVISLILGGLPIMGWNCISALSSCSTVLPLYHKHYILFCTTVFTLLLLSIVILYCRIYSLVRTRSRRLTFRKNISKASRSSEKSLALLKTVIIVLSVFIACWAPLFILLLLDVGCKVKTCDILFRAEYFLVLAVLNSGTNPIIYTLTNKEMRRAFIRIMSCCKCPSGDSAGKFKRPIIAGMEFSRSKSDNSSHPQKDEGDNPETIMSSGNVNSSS

By melting point is commonly meant the temperature, or range, at which the solid turns liquid. As a reminder, the IC50 is the concentration that inhibits the measured activity by half. Turning to `O=C(c1cccnc1)N1N=C(c2ccc(Br)cc2)CC1(O)C(F)(F)F` (centres unmarked) [Compound 102], the melting point was in the range of 150 to 152 °C. The “inhibition of S1P-induced matrigel invasion” value in data set [1] (HUVEC, 10 μM (FIG. 6)) is “inhibits S1P-induced matrigel invasion”. The “inhibition of S1P induced calcium responses” value in data set [2] is recorded as “inhibits S1P induced calcium responses in a dose-dependent manner”. Further, the “inhibition of Edg-1 receptors” value on human Edg-1 receptors [3] (FIG. 1-3) is “specifically inhibited”. The IC50 on human Edg-1 receptors [3] (Table 2, inhibition of S1P response, read-out: Edg 1 IC50) worked out at 1.69 µM. Also, the “effect on exodus-2-stimulated T cell migration” value in the data set on mouse T cells is on record as “enhance exodus-2-stimulated migration”.
What is called EC50 is the concentration needed to bring the measured effect to its halfway point. As to `COc1cc(C(=O)c2cc(Cl)ccc2N)cc(OC)c1OC` [Compound 104, (2-Amino-5-chlorophenyl)-(3,4,5-trimethoxyphenyl)methanone], the “migration of human peripheral blood mononuclear cells” value in data set [4] is given as “stimulates migration of human peripheral blood mononuclear cells at micromolar concentrations”. Further, the “potency of invasion stimulation relative to S1P” value in data set [1] (HUVEC, FIG. 7) was “significantly less potent that S1P”. In addition, the “stimulation of invasion of Human Umbilical Vein Endothelial cells” value in data set [1] (concentrations between 0.5-100 μM, FIG. 7) is recorded as “stimulates invasion”. Further, the figures for the EC50 in the data set on Null/Gqi and on human Edg-1 receptors [5] were > 25 µM and 10 µM, respectively.
